Measured values as given in the supplement of paper PMC10307832.

Columns and labels:
Experiment in all cases: relative viability (nuclei count vs DMSO), 5 days (fraction); higher = more cells survive
[1] = compound: Cn1c(Nc2ccc(C(F)(F)F)cc2)nc2cc(Oc3ccnc(-c4ncc(C(F)(F)F)[nH]4)c3)ccc21 [RAF265] + Nc1nc2[nH]cc(CCc3ccc(C(=O)N[C@@H](CCC(=O)O)C(=O)O)cc3)c2c(=O)[nH]1 [Pemetrexed] (partner 0.2 µM)
Outline: (§1)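 Relative viability divides the nuclei count in treated wells by that in vehicle wells. Lung cancer cell lines were seeded in 1536-well plates, dosed by pin tool the next day, and fixed and stained after 5 days in one step with final 0.05% Triton X-100, 1% formaldehyde and 1 ug/ml Hoechst. Dosing was a single drug or a fixed anchor-drug dose plus five library-drug doses (not always all listed) in √10 steps, and values are medians of duplicate plates imaged at 4×.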

[2] = compound: Cn1c(Nc2ccc(C(F)(F)F)cc2)nc2cc(Oc3ccnc(-c4ncc(C(F)(F)F)[nH]4)c3)ccc21 [RAF265] + CC1(C)CCC(c2ccc(Cl)cc2)=C(CN2CCN(c3ccc(C(=O)NS(=O)(=O)c4ccc(N[C@H](CCN5CCOCC5)CSc5ccccc5)c(S(=O)(=O)C(F)(F)F)c4)cc3)CC2)C1 [Navitoclax] (partner 0.5 µM)
Outline: as §1

[3] = compound: Cn1c(Nc2ccc(C(F)(F)F)cc2)nc2cc(Oc3ccnc(-c4ncc(C(F)(F)F)[nH]4)c3)ccc21 [RAF265] + Cc1nc(Nc2ncc(C(=O)Nc3c(C)cccc3Cl)s2)cc(N2CCN(CCO)CC2)n1 [Dasatinib] (partner 0.075 µM)
Outline: as §1

[4] = compound: Cn1c(Nc2ccc(C(F)(F)F)cc2)nc2cc(Oc3ccnc(-c4ncc(C(F)(F)F)[nH]4)c3)ccc21 [RAF265] + COc1cc2c(Oc3ccc(NC(=O)C4(C(=O)Nc5ccc(F)cc5)CC4)cc3F)ccnc2cc1OCCCN1CCOCC1 [Foretinib] (partner 0.25 µM)
Outline: as §1

Row | Cell Line | relative viability ([1]; first compound 0.01 µM) | relative viability ([1]; first compound 0.03162 µM) | relative viability ([1]; first compound 0.1 µM) | relative viability ([1]; first compound 0.3162 µM) | relative viability ([1]; first compound 1 µM) | relative viability ([2]; first compound 0.01 µM) | relative viability ([2]; first compound 0.03162 µM) | relative viability ([2]; first compound 0.1 µM) | relative viability ([2]; first compound 0.3162 µM) | relative viability ([2]; first compound 1 µM) | relative viability ([3]; first compound 0.01 µM) | relative viability ([3]; first compound 0.03162 µM) | relative viability ([3]; first compound 0.1 µM) | relative viability ([3]; first compound 0.3162 µM) | relative viability ([3]; first compound 1 µM) | relative viability ([4]; first compound 0.01 µM) | relative viability ([4]; first compound 0.03162 µM) | relative viability ([4]; first compound 0.1 µM) | relative viability ([4]; first compound 0.3162 µM) | relative viability ([4]; first compound 1 µM)
1 | 201T | 0.352 | 0.316 | 0.344 | 0.311 | 0.313 | 1.23 | 1.2 | 1.23 | 1.27 | 1.28 | 0.575 | 0.624 | 0.532 | 0.495 | 0.458 | 1.1 | 1.1 | 1.09 | 1.21 | 0.945
2 | A549 |  |  |  |  |  | 1.31 | 1.19 | 1.06 | 0.669 | 0.624 |  |  |  |  |  | 0.927 | 0.928 | 0.988 | 0.557 | 0.481
3 | A-427 | 1.06 | 0.939 | 1.03 | 0.678 | 0.468 | 0.929 | 0.678 | 0.96 | 0.579 | 0.272 | 0.641 | 0.615 | 0.685 | 0.469 | 0.131 | 1.12 | 0.962 | 0.846 | 0.26 | 0.204
4 | ABC-1 |  |  |  |  |  |  |  |  |  |  | 0.594 | 0.562 | 0.601 | 0.498 | 0.378 | 1.16 | 1.15 | 1.2 | 1.08 | 0.514
5 | BEN | 0.795 | 0.835 | 0.99 | 0.798 | 0.692 | 0.0592 | 0.0731 | 0.0721 | 0.0801 | 0.0649 | 0.28 | 0.323 | 0.379 | 0.358 | 0.356 | 0.665 | 0.776 | 0.701 | 0.664 | 0.568
6 | CAL-12T | 1.21 | 0.925 | 1.13 | 0.978 | 0.661 | 1.28 | 1.01 | 0.861 | 0.757 | 0.523 | 0.313 | 0.312 | 0.191 | 0.196 | 0.103 | 1.26 | 1.12 | 1.01 | 0.924 | 0.746
7 | COR-L23 | 0.188 | 0.206 | 0.202 | 0.182 | 0.184 | 0.976 | 0.957 | 0.918 | 0.512 | 0.514 | 0.503 | 0.473 | 0.383 | 0.32 | 0.251 | 1.01 | 0.962 | 0.864 | 0.893 | 0.644
8 | COR-L 105 | 1.27 | 0.941 | 1.31 | 0.714 | 0.685 | 0.853 | 0.878 | 0.668 | 0.685 | 0.339 | 0.311 | 0.319 | 0.258 | 0.159 | 0.158 | 1.29 | 1.5 | 1.1 | 1.15 | 0.614
9 | Calu-6 |  |  |  |  |  | 0.753 | 0.588 | 0.569 | 0.304 | 0.221 |  |  |  |  |  | 0.899 | 0.782 | 0.763 | 0.428 | 0.29
10 | ChaGo-K-1 | 0.262 | 0.273 | 0.248 | 0.262 | 0.325 | 1.1 | 1 | 1.03 | 1.04 | 0.823 | 0.64 | 0.644 | 0.515 | 0.42 | 0.497 | 0.969 | 0.827 | 0.825 | 0.819 | 0.646
11 | EBC-1 |  |  |  |  |  | 0.398 | 0.366 | 0.332 | 0.283 | 0.312 |  |  |  |  |  | 0.101 | 0.112 | 0.0984 | 0.107 | 0.113
12 | EKVX | 0.373 | 0.44 | 0.456 | 0.255 | 0.358 | 0.939 | 0.916 | 0.957 | 0.606 | 0.637 | 0.598 | 0.606 | 0.756 |  | 0.382 | 1.21 | 0.676 | 0.963 | 0.419 | 0.715
13 | EMC-BAC-2 | 0.432 | 0.406 | 0.427 | 0.347 | 0.258 | 1.11 | 1.06 | 1.05 | 0.941 | 0.612 | 0.318 | 0.256 | 0.196 | 0.224 | 0.0752 | 1.09 | 0.741 | 0.753 | 0.685 | 0.276
14 | EPLC-272H | 0.327 | 0.319 | 0.406 | 0.213 | 0.177 | 1.03 | 0.98 | 0.851 | 0.503 | 0.383 | 0.34 | 0.303 | 0.238 | 0.234 | 0.139 | 0.721 | 0.39 | 0.506 | 0.208 | 0.135
15 | H3255 | 0.569 | 0.609 | 0.54 |  | 0.569 | 0.563 | 0.47 | 0.695 | 0.0727 | 0.23 | 0.526 | 0.332 | 0.381 |  | 0.319 | 0.88 | 0.88 | 0.847 |  | 0.55
16 | HARA | 0.269 | 0.275 | 0.239 | 0.218 | 0.259 | 1.15 | 1.05 | 1.1 | 1.21 | 0.824 | 0.298 | 0.385 | 0.256 | 0.184 | 0.137 | 0.573 | 0.777 | 0.931 | 0.53 | 0.38
17 | HCC-15 | 0.232 | 0.232 | 0.231 | 0.235 | 0.23 | 0.734 | 0.709 | 0.7 | 0.505 | 0.464 | 0.66 | 0.662 | 0.688 | 0.426 | 0.337 | 1.03 | 1.04 | 0.991 | 0.883 | 0.673
18 | HCC-44 | 0.647 | 0.597 | 0.655 | 0.622 | 0.653 | 0.879 | 0.884 | 1.03 | 1.03 | 0.916 |  |  |  |  |  |  |  |  |  | 
